Test results taken from patent publication US10906878B2, “Kinase inhibitors for the treatment of disease” (Dana-Farber Cancer Institute, Inc., priority 2013, dated 2021).

Experiments:
BTK = BTK (Homo sapiens (Human), UniProt Q06187); experiment: BTK kinase assay (LanthaScreen Kinase assay); type: biochemical
Method: BTK kinase assay was conducted using LanthaScreen® Kinase assay.
1. Optimization of kinase concentration required to determine ATP Km,app. The assay was first performed at a high concentration of ATP (1 mM) against a dilution series of kinase in order to determine the amount of kinase required to elicit an approximately 80% change between the minimum and maximum TR-FRET emission ratios (the EC80 value).
2. Determination of ATP Km,app. Using the concentration of enzyme determined in step 1, the assay was then performed against a dilution series of ATP in order to determine the amount of ATP required to elicit a 50% change between the minimum and maximum TR-FRET emission ratios (the EC50 value). This concentration of ATP was referred to as the “apparent” Km value for ATP, or the ATP Km,app.
3. Optimization of kinase concentration required for assay at ATP Km,app. Using the ATP Km,app concentration of ATP determined in step 2, the kinase titration was repeated in order to determine the concentration of kinase required to elicit an approximately 80% change between the minimum and maximum TR-FRET emission ratios at the ATP Km,app concentration of ATP (the EC80 value). This was the concentration of kinase that will be used in an assay to determine an IC50 value for a compound of the invention.
Using the ATP and kinase concentrations determined above, the reaction was then performed in the presence of a dilution series of various compounds of the invention, and the amount of compounds required to elicit a 50% change in TR-FRET ratio (the IC50) was determined. The experiments can be performed over two days, with steps one and two being performed on the first day, and step three and the inhibitor IC50 determination(s) being performed on the second day.

[1] = Microsome Stability Mouse; type: in vitro ADME; conditions: mouse microsomes
[2] = biological target: EGFR Wild type vIII Ba/F3 cells (Homo sapiens (Human), UniProt P00533, DELINS30-297G); experiment: Ba/F3 cell growth inhibition (MTS assay), EGFR Wild type vIII; type: cell-based; conditions: Assay 1, read-out: EGFR Ba/F3 cells IC 50 (nM) Assay 1 Wild type vIII
EGFR Del Ba/F3 cells = EGFR Del Ba/F3 cells (Homo sapiens, UniProt P00533, cells depend on it, form not given); experiment: Ba/F3 cell growth inhibition (MTS assay), EGFR Del; type: cell-based
Source text: (§1) The specific cDNAs encoding the oncogenic alterations (EGFR: Del 19, L858R, L718Q, L844V, Del/T790M, L858R/T790M, Del 19/L718Q, Del 19/L844V, Del 19/T790M/L718Q and L858R/T790M/L718Q; FGFR: TEL-FGFR1, TEL-FGFR2, TEL-FGFR1 V561M, TEL-FGFR2 V561M; ALK: EML4-ALK; ROS1: CD74-ROS1) were cloned into the pDNA-Dual (BD Biosciences) vector using standard molecular biology techniques. Mutations were introduced using site-directed mutagenesis (Agilent) with mutant specific primers according to the manufacturer's instructions. All constructs were confirmed by DNA sequencing. The constructs were introduced into Ba/F3 cells using retroviral infection. Polyclonal cell lines were established by puromycin selection and subsequently cultured in the absence of interleukin-3 (IL-3). Uninfected Ba/F3 cells or cell lines expressing green fluorescent protein (GFP) were used as controls.
(§2) Growth and inhibition of growth was assessed by MTS assay. This assay, a colorimetric method for determining the number of viable cells, is based on the bioreduction of 3-(4,5-dimethylthiazol-2-yl)-5-(3-carboxymethoxyphenyl)-2-(4-sulfophenyl)-2H-tetrazolium (MTS) by cells to a formazan product that is soluble in cell culture medium, can be detected spectrophotometrically and was performed according to the manufacturer's recommended conditions. Ba/F3 cells were exposed to treatment for 72 hours and the number of cells used per experiment determined empirically to assure linear growth kinetics over that time period. All experimental points were set up in six to twelve wells and all experiments were repeated at least three times. […] The curves were fitted using a non-linear regression model with a sigmoidal dose response.

[3] = biological target: EGFR Del/T790M Ba/F3 cells (Homo sapiens, UniProt P00533, T790M, cells depend on it, form not given); experiment: Ba/F3 cell growth inhibition (MTS assay), EGFR Del/T790M; type: cell-based
Source text: as §1, §2

EGFR L858R Ba/F3 cells = EGFR L858R Ba/F3 cells (Homo sapiens (Human), UniProt P00533, L858R); experiment: Ba/F3 cell growth inhibition (MTS assay), EGFR L858R; type: cell-based
Source text: as §1, §2

[4] = biological target: EGFR L858R/T790M Ba/F3 cells (Homo sapiens (Human), UniProt P00533, L858R/T790M); experiment: Ba/F3 cell growth inhibition (MTS assay), EGFR L858R/T790M; type: cell-based; conditions: Assay 1; L858R/T790M; read-out: EGFR Ba/F3 cells IC 50 (nM) Assay 1 L858R/T790M
Source text: as §1, §2

[5] = biological target: EGFR L858R/T790M/L718Q Ba/F3 cells (Homo sapiens (Human), UniProt P00533, L718Q/L858R/T790M); experiment: Ba/F3 cell growth inhibition (MTS assay), EGFR L858R/T790M/L718Q; type: cell-based; conditions: Assay 1; T/L/L718Q; read-out: EGFR Ba/F3 cells IC 50 (nM) Assay 1 T/L/L718Q
Source text: as §1, §2

BLK = BLK (Homo sapiens (Human), UniProt P51451); experiment: Kinase inhibition BLK; type: biochemical
ITK = ITK (Homo sapiens (Human), UniProt Q08881); experiment: Kinase inhibition ITK; type: biochemical
TEC = TEC (Homo sapiens (Human), UniProt P42680); experiment: Kinase inhibition TEC; type: biochemical
TXK = TXK (Homo sapiens (Human), UniProt P42681); experiment: Kinase inhibition TXK; type: biochemical
[6] = biological target: EGFR Del/T790M/L718Q Ba/F3 cells (Homo sapiens, UniProt P00533, L718Q/T790M, cells depend on it, form not given); type: cell-based; conditions: 1.0 μM drug
Source text: as §1, §2

KIF5B/Ret_V804M = experiment: Ba/F3 cell growth inhibition (MTS assay), KIF5B/Ret_V804M; type: cell-based
Method: as §2

ITK, sequence (Q08881 whole entry): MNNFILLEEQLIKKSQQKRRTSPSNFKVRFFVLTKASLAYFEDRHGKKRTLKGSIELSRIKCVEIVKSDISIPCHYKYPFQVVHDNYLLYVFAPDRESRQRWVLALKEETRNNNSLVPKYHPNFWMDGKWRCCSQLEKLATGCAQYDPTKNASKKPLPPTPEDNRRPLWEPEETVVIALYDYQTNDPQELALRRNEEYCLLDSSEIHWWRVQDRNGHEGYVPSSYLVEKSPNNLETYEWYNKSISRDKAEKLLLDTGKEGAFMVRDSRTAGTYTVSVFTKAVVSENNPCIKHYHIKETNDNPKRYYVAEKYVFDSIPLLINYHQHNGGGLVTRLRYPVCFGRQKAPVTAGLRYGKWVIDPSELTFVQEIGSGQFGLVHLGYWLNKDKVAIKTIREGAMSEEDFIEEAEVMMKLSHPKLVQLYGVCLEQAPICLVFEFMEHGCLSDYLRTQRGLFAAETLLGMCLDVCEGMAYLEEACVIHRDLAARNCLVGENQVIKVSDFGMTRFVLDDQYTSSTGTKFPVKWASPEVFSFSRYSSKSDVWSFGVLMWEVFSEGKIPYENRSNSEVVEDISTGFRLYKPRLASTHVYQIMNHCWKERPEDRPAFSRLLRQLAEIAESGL
TXK, sequence (P42681 whole entry): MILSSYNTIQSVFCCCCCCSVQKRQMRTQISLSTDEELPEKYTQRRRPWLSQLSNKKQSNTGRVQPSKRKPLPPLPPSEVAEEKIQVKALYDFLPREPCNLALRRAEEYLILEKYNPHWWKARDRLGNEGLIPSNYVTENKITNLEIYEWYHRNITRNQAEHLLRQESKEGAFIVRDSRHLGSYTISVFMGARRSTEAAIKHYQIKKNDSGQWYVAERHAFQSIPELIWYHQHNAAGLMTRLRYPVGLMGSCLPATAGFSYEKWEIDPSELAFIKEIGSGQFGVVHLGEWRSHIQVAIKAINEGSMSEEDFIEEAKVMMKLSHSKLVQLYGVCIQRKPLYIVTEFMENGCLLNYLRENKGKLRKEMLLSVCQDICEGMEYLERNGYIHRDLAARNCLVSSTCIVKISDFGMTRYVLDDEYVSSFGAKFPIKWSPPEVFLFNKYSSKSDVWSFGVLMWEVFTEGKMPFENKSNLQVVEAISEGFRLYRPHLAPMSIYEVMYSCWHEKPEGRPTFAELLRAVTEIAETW
TEC, sequence (P42680 whole entry): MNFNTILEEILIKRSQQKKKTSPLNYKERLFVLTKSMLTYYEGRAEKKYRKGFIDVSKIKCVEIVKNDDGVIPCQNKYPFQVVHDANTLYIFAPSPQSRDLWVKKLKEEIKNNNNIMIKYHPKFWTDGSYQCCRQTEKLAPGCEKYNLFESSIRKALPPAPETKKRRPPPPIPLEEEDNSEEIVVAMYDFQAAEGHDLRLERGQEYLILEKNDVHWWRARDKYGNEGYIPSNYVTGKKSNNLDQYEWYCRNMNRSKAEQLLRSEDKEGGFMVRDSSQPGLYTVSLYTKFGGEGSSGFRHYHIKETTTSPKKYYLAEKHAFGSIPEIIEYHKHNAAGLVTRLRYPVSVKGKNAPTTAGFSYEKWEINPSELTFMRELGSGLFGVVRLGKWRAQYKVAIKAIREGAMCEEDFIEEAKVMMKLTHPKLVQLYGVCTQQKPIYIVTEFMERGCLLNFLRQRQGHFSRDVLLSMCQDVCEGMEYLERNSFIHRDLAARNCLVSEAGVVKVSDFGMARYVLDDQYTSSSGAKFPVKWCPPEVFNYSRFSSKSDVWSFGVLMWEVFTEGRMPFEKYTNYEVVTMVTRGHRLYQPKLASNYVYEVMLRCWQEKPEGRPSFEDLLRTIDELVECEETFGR
BTK, sequence (Q06187 whole entry): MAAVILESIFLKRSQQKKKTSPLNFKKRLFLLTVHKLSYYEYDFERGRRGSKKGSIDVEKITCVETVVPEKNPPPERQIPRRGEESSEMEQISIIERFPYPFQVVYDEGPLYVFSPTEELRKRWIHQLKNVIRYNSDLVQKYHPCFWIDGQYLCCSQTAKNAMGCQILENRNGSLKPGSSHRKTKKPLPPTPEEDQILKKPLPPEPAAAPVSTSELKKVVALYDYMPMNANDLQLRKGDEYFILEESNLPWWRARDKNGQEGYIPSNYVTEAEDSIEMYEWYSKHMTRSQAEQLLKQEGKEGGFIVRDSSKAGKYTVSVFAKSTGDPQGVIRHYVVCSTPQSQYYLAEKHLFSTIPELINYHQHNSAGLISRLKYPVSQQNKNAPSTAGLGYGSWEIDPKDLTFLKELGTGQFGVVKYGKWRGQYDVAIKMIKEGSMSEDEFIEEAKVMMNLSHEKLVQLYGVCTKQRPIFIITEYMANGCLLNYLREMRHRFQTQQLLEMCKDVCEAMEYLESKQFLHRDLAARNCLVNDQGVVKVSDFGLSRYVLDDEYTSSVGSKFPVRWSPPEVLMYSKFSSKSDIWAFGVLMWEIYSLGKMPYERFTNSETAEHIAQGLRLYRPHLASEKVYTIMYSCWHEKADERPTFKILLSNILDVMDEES
BLK, sequence (P51451 whole entry): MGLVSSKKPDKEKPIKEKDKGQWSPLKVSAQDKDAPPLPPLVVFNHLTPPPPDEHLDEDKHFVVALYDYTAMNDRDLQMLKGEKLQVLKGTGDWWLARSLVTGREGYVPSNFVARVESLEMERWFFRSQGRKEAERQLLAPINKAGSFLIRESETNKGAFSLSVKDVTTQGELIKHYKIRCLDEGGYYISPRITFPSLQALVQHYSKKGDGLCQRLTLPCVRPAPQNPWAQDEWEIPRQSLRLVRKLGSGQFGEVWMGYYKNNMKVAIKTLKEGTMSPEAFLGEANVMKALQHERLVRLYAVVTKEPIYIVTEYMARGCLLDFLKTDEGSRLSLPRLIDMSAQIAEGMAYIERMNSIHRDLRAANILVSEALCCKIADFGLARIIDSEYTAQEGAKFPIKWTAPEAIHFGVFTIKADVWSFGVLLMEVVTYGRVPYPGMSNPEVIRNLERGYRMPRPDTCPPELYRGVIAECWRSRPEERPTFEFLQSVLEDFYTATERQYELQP

CN(C)C/C=C/C(=O)Nc1cccc(N(C(=O)OCc2ccccc2)c2ccnc3[nH]ccc23)c1 [Compound 104A]
IC50 (BTK): > 10000 nM

C=CC(=O)Nc1cccc(N(C(=O)OCc2ccccc2)c2ccnc3[nH]ccc23)c1 [Compound 103A]
IC50 (BTK): 2240 nM

C=CC(=O)Nc1cccc(N(C(=O)OCc2ccccc2)c2ccnc(Nc3ccc(N4CCN(C)CC4)cc3OC)n2)c1 [Compound 4A, Benzyl (3-acrylamidophenyl)(2-((2-methoxy-4-(4-methylpiperazin-1-yl)phenyl)amino)pyrimidin-4-yl)carbamate]
Microsome Stability Mouse min [1]: 29 min | IC50 [2]: 2.92 nM | IC50 (EGFR Del Ba/F3 cells; Assay 1, Del, read-out: EGFR Ba/F3 cells IC 50 (nM) Assay 1 Del): 14.2 nM | IC50 ([3]; Assay 1, Del/T790M, read-out: EGFR Ba/F3 cells IC 50 (nM) Assay 1 Del/T790M): 17.3 nM | IC50 (EGFR L858R Ba/F3 cells; Assay 1, L858R, read-out: EGFR Ba/F3 cells IC 50 (nM) Assay 1 L858R): 0.5 nM | IC50 [4]: 7.6 nM | IC50 [5]: 293 nM | Kinase inhibition (% control, 1000 nM compound) BLK (BLK): 20 % control | Kinase inhibition (% control, 1000 nM compound) ITK (ITK): 100 % control | Kinase inhibition (% control, 1000 nM compound) TEC (TEC): 83 % control | Kinase inhibition (% control, 1000 nM compound) TXK (TXK): 27 % control

C=CC(=O)Nc1cccc(N(C(=O)NCc2ccccc2)c2cc(Nc3ccc(N4CCN(C)CC4)cc3OC)ncn2)c1 [Compound 3A, N-(3-(3-benzyl-1-(6-((2-methoxy-4-(4-methylpiperazin-1-yl)phenyl)amino)pyrimidin-4-yl)ureido)phenyl)acrylamide]
EGFR activity (% Control, 1.0 μM drug) Assay 1 Del (EGFR Del Ba/F3 cells; 1.0 μM drug, Assay 1): 2 % Control | EGFR activity (% Control, 1.0 μM drug) Assay 2 Del (EGFR Del Ba/F3 cells; 1.0 μM drug, Assay 2): 1 % Control | EGFR activity (% Control, 1.0 μM drug) Assay 1 Del/T790M ([3]; 1.0 μM drug, Assay 1): 1 % Control | EGFR activity (% Control, 1.0 μM drug) Assay 2 Del/T790M ([3]; 1.0 μM drug, Assay 2): 2 % Control | EGFR activity (% Control, 1.0 μM drug) Assay 1 Del/T790M/L718Q ([6]; Assay 1): 53 % Control | EGFR activity (% Control, 1.0 μM drug) Assay 2 Del/T790M/L718Q ([6]; Assay 2): 86 % Control | EGFR activity (% Control, 1.0 μM drug) Assay 1 L858R (EGFR L858R Ba/F3 cells; 1.0 μM drug, Assay 1): 2 % Control | EGFR activity (% Control, 1.0 μM drug) Assay 2 L858R (EGFR L858R Ba/F3 cells; 1.0 μM drug, Assay 2): 4 % Control | EGFR activity (% Control, 1.0 μM drug) Assay 1 KIF5B/Ret_V804M (KIF5B/Ret_V804M): 102 % Control | Kinase inhibition (% control, 1000 nM compound) BLK (BLK): 19 % control | Kinase inhibition (% control, 1000 nM compound) ITK (ITK): 100 % control | Kinase inhibition (% control, 1000 nM compound) TEC (TEC): 55 % control | Kinase inhibition (% control, 1000 nM compound) TXK (TXK): 7.4 % control
